Test [1] concerns NCI-H929 multiple myeloma model. Briefly: NCI-H929 subcutaneous multiple myeloma xenograft mouse model (Example 1). It counts as in vivo, Balb/c Scid mice. To be noted: carfilzomib 2 mg/kg 2×/wk × 3 wk IV; for Activity: D69, hu38SB19 0.5 mg/kg 2×/wk × 2 wk IV. An excerpt: The subcutaneous multiple myeloma (MM) xenograft mouse models were established using NCI-H929 or RPMI-8226 cell lines. Specifically, 5-6 week old female Balb/c Scid mice were obtained from Jackson Lab. Mice were housed for 7-10 days prior to implantation. Mice were housed in a dedicated room in the UCSF Mt Zion Animal Barrier Facility. NCI-H929 and RPMI-8226 cells were obtained from the German Collection of Microorganisms and Cell Cultures, DSMZ, (Deutsche Sammlung von Mikroorganismen and Zellkulturen), and grown in sterile suspension culture in T225 flasks as follows: NCI-H929: RPMI1640+20% FBS+4 mM L−glutamine+1 mM sodium pyruvate+50 μM mercaptoethanol. RPMI-8226: RPMI1640+10% FBS+4 mM L-glutamine. At the time of implantation, mice were shaved on the right flank and shoulder region and anesthetized with ip avertin. MM cells suspended in serum free RPMI 1640 media diluted 1:1 with Matrigel (BD) at a concentration of 1×10^8 cells per ml were injected sc into the right flank in 100 μL volume (1×10^7 cells) using a 1 ml syringe and 25 g needle. Mice were monitored twice weekly for the appearance of tumors and once tumors were visible, measurements were collected twice weekly for body weight and tumor volume. Electronic balance and calipers were used and data was collected directly into a study management program (Study Director). When the mean tumor volume reached about 150-200 mm^3, the mice were distributed into treatment groups of 8-10 mice per groups and dosing was begun. […] Dose levels for use in combination studies are as follows: Data were collected using electronic balance and calipers using a study management application called StudyLog (Study Director). […] Antitumor activity was determined according to NCI standards based on the ratio of the median tumor volume change of the treated/median tumor volume change of the control×100 (% ΔT/ΔC). Low numerical values for ΔT/ΔC describe stronger anti-tumor activity. Anti-tumor activity is defined as T/C≤40% at minimum. ΔT/ΔC<10% is considered high anti-tumor activity.

Another test deals with NCI-H929 xenografts. Briefly: NCI-H929 hind-flank xenograft tumor growth (Example 3, FIGS. 12-13). It counts as in vivo, Balb/c Scid mice. Conditions: for tumor growth inhibition, single agent: single-agent administration, NCI-H929 hind-flank model (FIG. 12). The method, then: Carfilzomib (PR-171) was obtained from Chemie Tek (CT-CARP 98). Carfilzomib was formulated in an aqueous solution of 10% (w/v) sulfobutylether-h-cyclodextrin (Cydex) and 10 mmol/L sodium citrate (pH 3.5), 2 mg/ml stock prepared and frozen at −80° C., diluted daily with vehicle before injection. Carfilzomib was administered weekly qd×2×3 wk (iv).
Test Animals: 5-6 week old female Balb/c Scid mice were obtained from Jackson Lab. Mice were housed for 7-10 days prior to implantation of multiple myeloma (MM) cell lines. Mice were housed in a dedicated room in the UCSF Mt. Zion Animal Barrier Facility.
(§1) Xenograft Model: At the time of implantation, mice were shaved on the right flank and shoulder. MM cells were suspended in serum free RPMI 1640 media diluted 1:1 with Matrigel (BD) at a concentration of 1×10^8 cells per ml were injected sc into the right flank in 100 ul volume (1×10^7 cells) using a 1 ml syringe and 25 g needle. Mice were monitored twice weekly for the appearance of tumors and once tumors were visible, measurements were collected twice weekly for body weight and tumor volume. Electronic balance and calipers were used and data was collected directly into a study management program (Study Director). When the mean tumor volume reached approximately 150-200 mm^3, mice were distributed into treatment groups of 8-10 mice per group and dosing was initiated.

Test [2] relates to RPMI-8226 xenograft models. Briefly: RPMI-8226 subcutaneous multiple myeloma xenograft mouse model (Example 1). It counts as in vivo, Balb/c Scid mice. To be noted: Day 41, carfilzomib 3 mg/kg qd×2 every wk×3 wk, hu38SB19 3 mg/kg BIW×2 wk.
Text: The subcutaneous multiple myeloma (MM) xenograft mouse models were established using NCI-H929 or RPMI-8226 cell lines. Specifically, 5-6 week old female Balb/c Scid mice were obtained from Jackson Lab. Mice were housed for 7-10 days prior to implantation. Mice were housed in a dedicated room in the UCSF Mt Zion Animal Barrier Facility. NCI-H929 and RPMI-8226 cells were obtained from the German Collection of Microorganisms and Cell Cultures, DSMZ, (Deutsche Sammlung von Mikroorganismen and Zellkulturen), and grown in sterile suspension culture in T225 flasks as follows: NCI-H929: RPMI1640+20% FBS+4 mM L−glutamine+1 mM sodium pyruvate+50 μM mercaptoethanol. RPMI-8226: RPMI1640+10% FBS+4 mM L-glutamine.
as §1, with “At” for “Xenograft Model: At”, “shoulder region and anesthetized with ip avertin.” for “shoulder.”, “cells” for “cells were”, “μL” for “ul”, “When the mean tumor volume reached approximately 150-200 mm^3, mice were distributed into treatment groups of 8-10 mice per group and dosing was initiated.” left out

Test [3] relates to tumor cells. To be noted: reported in the literature; cited from earlier work.
The subject of test [4] is tumor cells. Briefly: Direct pro-apoptotic activity on tumor cells without cross-linking. The format is cell-based. To be noted: preclinical studies.

“Also recorded” adds a separate entry of the source.

On to `CC(C)C[C@H](NC(=O)[C@H](CCc1ccccc1)NC(=O)CN1CCOCC1)C(=O)N[C@@H](Cc1ccccc1)C(=O)N[C@@H](CC(C)C)C(=O)[C@@]1(C)CO1` [Carfilzomib, (S)-4-Methyl-N-((S)-1-(((S)-4-methyl-1-((R)-2-methyloxiran-2-yl)-1-oxopentan-2-yl)amino)-1-oxo-3-phenylpropan-2-yl)-2-((S)-2-(2-morpholinoacetamido)-4-phenylbutanamido)pentanamide], for which the Activity entry in test [1] was “Inactive”; in test [1] (listed as carfilzomib), “inactive”. In addition, the “% ΔT/ΔC (D69)” value in test [1] (hu38SB19 0.5 mg/kg 2×/wk × 2 wk IV) is recorded as 68%. The “tumor growth inhibition, single agent” value with NCI-H929 xenografts is reported as “not robustly sensitive to single-agent therapy”. Also, the complete regressions in test [2] was 0/10.

On to “Daratumumab: CD38 antibody reported to induce apoptosis only after cross-linking with a secondary antibody”, for which, in the test with tumor cells [3], the induction of apoptosis result is “able to induce apoptosis only after cross-linking with a secondary antibody”.

“hu38SB19: humanized anti-CD38 antibody; VH SEQ ID NO: 66, VL SEQ ID NO: 62 or 64; humanized version of 38SB19”: in test [1], the result was Inactive. The “elimination of palpable tumors” value in the test on NCI-H929 xenografts (hu38SB19 as sole active ingredient, four cumulative doses twice weekly at 3 mg/kg (FIG. 12)) was “eliminate palpable tumors in all mice”. In the test with NCI-H929 xenografts, the “tumor growth inhibition, single agent” value was “dose-dependent inhibition of tumor growth; also recorded: dose-dependent anti-tumor effects”. Moreover, the complete regressions in test [2] is 2/10. Besides, the direct pro-apoptotic activity result in the test with tumor cells [4] is “potent direct pro-apoptotic activity”.
